SMILES strings stand for the structures. “Also recorded” adds a separate entry of the source.

In one test the test system is ptch1 expression. The test is described as follows: Whole mount zebrafish in situ hybridization for ptch1. The test is classed as in vivo. The note with it: 2 μM from 4 hpf. The protocol:
In situ hybridization was performed as previously described. Zebrafish ptch1 probes were produced as previously described.

A further test deals with BMP signaling (BRE-luc). The test is described as follows: BMP4-responsive reporter (BRE-luc) in C2C12BRA cells. The test is classed as cell-based. The note with it: stimulated with BMP4 ligand.
For the next test, the system named is otic kino-cilia motility. Kind of test: Video-microscopy of zebrafish otic kino-cilia. The test is classed as in vivo. The note with it: 2 μM. The text has this:
For visualizing ciliary beating, live embryos (20 hpf) were removed from their chorion, mounted in SeaPlaque low-melting agarose (Biowhittaker Molecular Applications) (1.0% in embryo medium) in microwells of glass-bottom culture dishes (MatTek), and covered with embryo medium. Movies were acquired by using OPENLAB software (Improvision) at 55 frames per second with a 63×DIC objective on a Zeiss Axiovert 200 inverted fluorescence microscope equipped with a Retiga Exi Fast camera (Qimaging). Kymographs were obtained by drawing a line across a ciliary trajectory by using ImageJ software (National Institutes of Health, developed by W. Rasband) and Multiple-Kymograph plugin (developed by J. Rietdorf and A. Seitz).

For a further test, the system named is PKA activation. Kind of test: Immunostaining of autophosphorylated PKA catalytic subunit in NIH3T3 cells. Conditions: SAG-stimulated NIH3T3 cells, Egm 5 μM, Rolipram 10 μM. The test is classed as cell-based. The protocol: NIH3T3 cells were plated on Poly-D-Lysine-coated glass coverslips and were cultured at 37° C., 5% CO2 in DMEM medium containing 10% fetal bovine serum until reaching 75% confluency. For one set of experiments, cells were then transfected with VSV-tagged PDE4D3 plasmid (gift from Miles Houslay, University of Glasgow, Scotland, UK) using Fugene6 transfection reagent (Roche, Indianapolis, Ind.) per manufacturer's protocol. Afterward, cell medium was replaced with DMEM/0.5% FBS containing either 5 μM eggmanone or DMSO and incubated overnight at 37° C., 5% CO2. Cells were fixed in 4% PFA at room temperature for 10 minutes prior to permeabilization, blocking, and staining with primary antibodies against Arl13b (gift of Tamary Caspary, Emory University, Atlanta, Ga.) and VSV (AbCam, Cambridge, Mass.). Fluorescent immunocytochemistry was performed using species-specific, secondary antibodies (Jackson Immunoresearch, West Grove, Pa.). For additional immunocytochemistry experiment, cells were treated with 20 nM SAG in the presence or absence of 5 uM Eggmanone. After overnight incubation, cells were washed with PBS, fixed for 10 minutes in 4% PFA, permeabilized 20 minutes at −20C with cold methanol, blocked with PBS/1% BSA, and incubated with primary antibodies to phospho-PKA catalytic domain Thr197 (Cell Signaling, Danvers, Mass.) and then to Arl13b. An additional overnight blocking step using unconjugated rabbit IgG was required between primary antibody incubations since both antibodies were produced in rabbit. Fluorescent conjugated secondary antibodies were used for visualization. Data analysis was performed in part through the use of the VUMC Cell Imaging Shared Resource.
Using ImageJ software (National Institutes of Health, developed by W. Rasband), a region of interest was created using the magic wand tool on Arl13b channel and transposed to the Gli2 channel, and integrated density was measured and reported as arbitrary units (a.u.). For phospho-PKA, using ImageJ, a line selection tool was used to select a line projected through the length of the primary cilia and an equal length beyond. The intensity values were potted and the cumulative florescence (area under the curve) was calculated for three cilia, blindly, for each treatment. These values for cilia and pericilia domain were analyzed by a two tailed students t-test. For correlation analysis, correlation coefficient for intensity of gamma-tubulin and phosphor-PKA were calculated and compared among treatments with students t-test.

Test [1] concerns Gli-Luc reporter activity. The test is described as follows: Gli-luciferase reporter under Gli overexpression. The test is classed as cell-based. The protocol:
For Hh signaling assays, Shh-Light2 cells stably transfected with Gli-Luciferase reporter construct were used along with Shh-conditioned media, as previously described^7. Alternatively, 3 μM purmorphamine or 20 nM Smoothened agonist (SAG) (Santa Cruz Biotechnology, Santa Cruz, Calif.) was used to induce Hh signaling. Reporter cells were seeded in 96-well plates and incubated overnight with the various concentrations of eggmanone and Shh-conditioned media. To assess the effects of overexpression of Gli-2, PDE4D3 and DN-PDE4D3 on Hh signaling, mammalian expression vectors containing these constructs were transfected into Shh-Light2 cells in 96-well plates using Fugene6 (Roche), according to manufacturer's instructions. The transfected or Shh-stimulated cells were incubated overnight with the various concentrations of compound. The cells were then lysed, and cell extracts were subjected to Steady-Glo luciferase assay (Promega) according to manufacturer's instructions. The results were normalized to cell titer, as determined using Cell Titer-Glo luminescence assay (Promega).

The next test concerns 11 PDE families. The test is described as follows: In vitro PDE activity assays across 11 PDE families. Type of test: biochemical. On the procedure: In vitro PDE profiling and dose-response assays were performed by BPS Biosciences (San Diego, Calif.). Kinetic Mechanism of inhibition studies were conducted by Millipore (St. Louis, Mo.). In brief, the PDE assay measures fluorescent polarization of FAM-AMP as FAM-cAMP is converted to FAM-AMP by PDE), the binding agent.
A series of dilutions of the test compound were prepared with 10% DMSO in assay buffer and 5 μl of the dilution was added to a 50 μl reaction so that the final concentration of DMSO is 1% in all of reactions. All of the PDE enzymatic reactions were conducted in duplicate at room temperature for 60 minutes in a 50 μl mixture containing PDE assay buffer (10 mM Tris-HCl, pH7.4, 10 mM MaCl2, 0.05% Tween 20), 100 nM FAM-cAMP, a PDE enzyme and a test compound.
After the enzymatic reaction, 100 μl of a binding solution (1:100 dilution of the binding agent, which contains the nano beads that recognize FAM-AMP, with the binding agent diluent) was added to each reaction and the reaction was performed at room temperature for 60 minutes. Fluorescence intensity was measured at an excitation of 485 nm and an emission of 528 nm using a Tecan Infinite M1000 microplate reader. Assays done by Millipore were conducted similarly with changes noted below: […]

Turning to `C=C(C)Cn1c(SCC(=O)c2cccs2)nc2sc3c(c2c1=O)CCCC3` [EGM, Eggmanone], the “Hh-responsive ptch1 expression in embryos” value with ptch1 expression is reported as “abolished Hh-responsive ptch1 expression in adaxial cells; also recorded: abolished Hh-responsive ptc1 expression in adaxial cells; also recorded: abolished Hh-responsive ptch1 expression in somites”. For the same compound, in the test with BMP signaling (BRE-luc), the “BMP4-responsive reporter (BRE-luc) activity” value is on record as “had no significant effects on BMP4-responsive reporter (BRE-luc) activity”. The Otic kino-cilia movement result in the test with otic kino-cilia motility is given as “cilium movement is markedly reduced”; in the test with otic kino-cilia motility (listed as Egm), “cilia movement is markedly reduced”. Moreover, the “PKA activation (phospho-PKA-C staining), spatial distribution” value is “increases local PKA activation at the base of the primary cilia; also recorded: spatially restricted activation of PKA around the centrosome” with PKA activation and “increases local PKA activation at the base of the primary cilia; also recorded: increases local PKA activation at the basal body” in the test on PKA activation (listed as Egm). The “Gli-luciferase reporter activity under Gli2 overexpression” value in test [1] was “had no significant effect on Gli-luciferase reporter activity under Gli2 overexpression conditions”. Besides, the “Inhibition across PDE families” value in the test on 11 PDE families (10 μM (10 and 50 μM)) is given as “significantly inhibited only the PDE4 class”.
Regarding `C=C(C)Cn1c(SCC(=O)c2cccs2)nc2sc3c(c2c1=O)CCCC3` [Eggmanone, 3-(2-methylallyl)-2-((2-oxo-2-(thiophen-2-yl)ethyl)thio)-5,6,7,8-tetrahydrobenzo[4,5]thieno[2,3-d]pyrimidine-4(3H)-one], the “Hh-responsive ptch1 expression in embryos” value in the test with ptch1 expression is reported as “abrogated the expression of the Hh target gene patched-1 (ptch1)”. Besides, the figures for the “BMP4-responsive reporter (BRE-luc) activity” value in the test with BMP signaling (BRE-luc) and in the test on BMP signaling (BRE-luc) (listed as eggmanone) were “did not affect BMP-responsive luciferase reporter activity; also recorded: had no significant effects on BMP4-responsive reporter (BRE-luc) activity” and “did not affect BMP-responsive luciferase reporter activity”, respectively. Also, the Otic kino-cilia movement result in the test with otic kino-cilia motility and in the test with otic kino-cilia motility (listed as eggmanone) was “markedly less motile” each time. Also, the results for the “PKA activation (phospho-PKA-C staining), spatial distribution” value with PKA activation and in the test with PKA activation (listed as eggmanone) were “significantly increased the intensity of PKA activation almost exclusively at the basal body” and “significantly increased the intensity of PKA activation almost exclusively in the basal body”, respectively. Besides, the “Gli-luciferase reporter activity under Gli2 overexpression” value in test [1] is on record as “did not block Gli-Luc reporter activity in cells transiently overexpressing Gli2”. Besides, the “Inhibition across PDE families” value is “significantly inhibited only the PDE4 family” in the test with 11 PDE families (10 μM (10 and 50 μM in b110)); “significantly inhibited only the cAMP specific PDE4 family” with 11 PDE families (10 μM (10 and 50 μM in b110), listed as eggmanone).

(Values after patent US10329304B2, “Compounds and methods for inhibition of hedgehog signaling and phosphodiesterase” (Vanderbilt University, priority 2014, dated 2019).)
